Assay results from patent publication US10344024B2, “Compounds as ROR gamma modulators” (Glenmark Pharmaceuticals S.A., priority 2015, dated 2019).

Biological target: T1, GST-tagged ROR gamma ligand binding domain (LBD) (Homo sapiens, UniProt P51449)
T1 construct: purchased Invitrogen
T1 sequence (P51449 269-508 limits assumed): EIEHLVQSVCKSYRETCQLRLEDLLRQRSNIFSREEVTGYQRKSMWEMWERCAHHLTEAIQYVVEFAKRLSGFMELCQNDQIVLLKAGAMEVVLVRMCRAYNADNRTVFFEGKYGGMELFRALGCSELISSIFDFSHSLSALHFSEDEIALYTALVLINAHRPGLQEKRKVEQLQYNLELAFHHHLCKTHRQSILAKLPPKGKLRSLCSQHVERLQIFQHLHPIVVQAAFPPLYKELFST
Experiment: TR-FRET assay for ROR gamma (LanthaScreen co-activator peptide recruitment)
Type: biochemical
Settings: for inhibition at 1 µM: compound concentration 1 μM; for inhibition at 1 µM / inhibition at 10 µM: TR-FRET ratio 520/495, percent of control; for inhibition at 10 µM: compound concentration 10 μM; for IC50: from dose response curve, nonlinear regression, read-out: IC50 range
Source text: The compounds described herein were screened for ROR gamma modulator activity using the TR-FRET assay (LanthaScreen™ available from Invitrogen of Carlsbad, Calif.) as described in JBC 2011, 286, 26: 22707-10; and Drug Metabolism and Disposition 2009, 37, 10: 2069-78.
Binding of the co-activator peptide, causes an increase in the TR-FRET signal while binding of an antagonist decreases the recruitment of the co-activator peptide, causing a decrease in the TR-FRET signal compared to control with no compound. The assay was performed using a two-step procedure, pre-incubation step with the compound followed by the detection step on addition of the anti-GST tagged terbium (Tb) and fluorescein tagged fluorophores as the acceptor.
Test compounds or reference compounds such as T0901317 (Calbiochem) were dissolved in dimethylsulfoxide (DMSO) to prepare 10.0 mM stock solutions and diluted to the desired concentration. The final concentration of DMSO in the reaction was 4% (v/v). The assay mixture was prepared by mixing 10 nM of the GST-tagged ROR gamma ligand binding domain (LBD) in the assay buffer containing 25 mM HEPES (pH 7.4), 100 mM NaCl, 5 mM DTT and 0.01% BSA with or without the desired concentration of the compound. The reaction was incubated at 22° C. for 1 hour. The pre-incubation step was terminated by addition of the detection mixture containing 300 nM Fluorescein-D22 co-activator peptide and 10 nM lantha screen Tb-anti GST antibody into the reaction mixture.
After shaking for 5 minutes the reaction was further incubated for 1 hour at room temperature and read at 4° C. on an Infinite F500 reader as per the kit instructions (Invitrogen). The inhibition of test compound was calculated based on the TR-FRET ratio of 520/495. The activity was calculated as a percent of control reaction. IC50 values were calculated from dose response curve by nonlinear regression analysis using GraphPad Prism software.

| SMILES | inhibition at 1 µM | inhibition at 10 µM | IC50 |
| --- | --- | --- | --- |
| CCC(F)(F)c1ccc(CC(=O)Nc2ccc(-c3nccnc3N3CCN(C(C)=O)CC3C)cc2)cc1 (stereo not drawn) [Example 42, N-(4-(3-(4-Acetyl-2-methylpiperazin-1-yl)pyrazin-2-yl)phenyl)-2-(4-(1,1-difluoropropyl)phenyl)acetamide] | 51.9% | 76.1% |  |
| CCC(F)(F)c1ccc(CC(=O)Nc2ccc(-c3nccnc3NC(C)c3ccccc3)cc2)cc1 (stereo not drawn) [Example 58, 2-(4-(1,1-Difluoropropyl)phenyl)-N-(4-(3-((1-phenylethyl)amino)pyrazin-2-yl)phenyl)acetamide] | 80.3% | 90.7% | 100 to 500 nM |
| CCC(F)(F)c1ccc(CC(=O)Nc2ccc(-c3nccnc3N[C@@H](C)c3ccc(C)cc3C)cc2)cc1 [Example 69, (S)-2-(4-(1,1-Difluoropropyl)phenyl)-N-(4-(3-((1-(2,4-dimethylphenyl)ethyl)amino)pyrazin-2-yl)phenyl)acetamide] | 97% | 97.1% | < 50 nM |
| CCC(F)(F)c1ccc(CC(=O)Nc2ccc(-c3nccnc3-c3ccc(Cl)cc3F)cc2)cc1 [Example 6, N-(4-(3-(4-Chloro-2-fluorophenyl)pyrazin-2-yl)phenyl)-2-(4-(1,1-difluoropropyl)phenyl)acetamide] | 87.4% | 86.4% | < 50 nM |
| CCC(F)(F)c1ccc(CC(=O)Nc2ccc(-c3nccnc3-c3ccccc3C)cc2)cc1 [Example 31] | 77.7% | 81.7% | < 50 nM |
| CCC(F)(F)c1ccc(CC(=O)Nc2ccc(-c3nccnc3-c3ccccc3F)cc2)cc1 [Example 11, 2-(4-(1,1-Difluoropropyl)phenyl)-N-(4-(3-(2-fluorophenyl)pyrazin-2-yl)phenyl)acetamide] | 78.8% | 83.8% | < 50 nM |
| CC(O)C(F)(F)c1ccc(CC(=O)Nc2ccc(-c3nccnc3OCc3ccccc3Cl)cc2)cc1 (stereo not drawn) [Example 91, N-(4-(3-((2-Chlorobenzyl)oxy)pyrazin-2-yl)phrnyl)-2-(4-(1,1-difluoro-2-hydroxypropyl)phenyl)acetamide] | 79.3% | 82.6% | < 50 nM |
| CCC(F)(F)c1ccc(CC(=O)Nc2ccc(-c3nccnc3-c3ccccc3Cl)cc2)cc1 [Example 5, N-(4-(3-(2-Chlorophenyl)pyrazin-2-yl)phenyl)-2-(4-(1,1-difluoropropyl)phenyl)acetamide] | 81.5% | 84.4% | < 50 nM |
| CC(O)C(F)(F)c1ccc(CC(=O)Nc2ccc(-c3nccnc3N3CC(OCc4ccccc4)C3)cc2)cc1 (stereo not drawn) [Example 94, N-(4-(3-(3-(Benzyloxy)azetidin-1-yl)pyrazin-2-yl)phenyl)-2-(4-(1,1-difluoro-2-hydroxypropyl)phenyl)acetamide] | 15.8% | 45.6% |  |
| CCc1ccccc1-c1nccnc1-c1ccc(NC(=O)Cc2ccc(C(F)(F)C(C)O)cc2)cc1 (stereo not drawn) [Example 40, 2-(4-(1,1-Difluoro-2-hydroxypropyl)phenyl)-N-(4-(3-(2-ethylphenyl)pyrazin-2-yl)phenyl)acetamide] | 71.4% | 76.9% | < 50 nM |
| CCC(F)(F)c1ccc(CC(=O)Nc2ccc(-c3nccnc3-c3ccc(Cl)cc3)cc2F)cc1 [Example 26, N-(4-(3-(4-Chlorophenyl)pyrazin-2-yl)-2-fluorophenyl)-2-(4-(1,1-difluoropropyl)phenyl)acetamide] | 71.9% | 79.6% | 100 to 500 nM |
| CCN1CCN(c2nccnc2-c2ccc(NC(=O)Cc3ccc(C(F)(F)CC)cc3)cc2)CC1 [Example 33, 2-(4-(1,1-Difluoropropyl)phenyl)-N-(4-(3-(4-ethylpiperazin-1-yl)pyrazin-2-yl)phenyl)acetamide] | 27.3% | 75.8% |  |
| CCC(F)(F)c1ccc(CC(=O)Nc2ccc(-c3nccnc3N(C)[C@H](C)c3ccccc3)cc2)cc1 [Example 60, (R)-2-(4-(1,1-Difluoropropyl)phenyl)-N-(4-(3-(methyl(1-phenylethyl)amino)pyrazin-2-yl)phenyl)acetamide] | 69.6% | 83% | 100 to 500 nM |
| CCC(F)(F)c1ccc(CC(=O)Nc2ccc(-c3nccnc3-c3ccc(C)cc3F)cc2)cc1 [Example 48, 2-(4-(1,1-Difluoropropyl)phenyl)-N-(4-(3-(2-fluoro-4-methylphenyl)pyrazin-2-yl)phenyl)acetamide] | 79.2% | 84.1% | < 50 nM |
| CCC(F)(F)c1ccc(CC(=O)Nc2ccc(-c3nccnc3OC(C)c3ccccc3C3CC3)cc2)cc1 (stereo not drawn) [Example 81, N-(4-(3-(1-(2-Cyclopropylphenyl)ethoxy)pyrazin-2-yl)phenyl)-2-(4-(1,1-difluoropropyl)phenyl)acetamide] | 83.2% | 88.3% | 100 to 500 nM |
| CC(O)C(F)(F)c1ccc(CC(=O)Nc2ccc(-c3nccnc3N3CCOCC3)cc2)cc1 (stereo not drawn) [Example 19, 2-(4-(1,1-Difluoro-2-hydroxypropyl)phenyl)-N-(4-(3-morpholinopyrazin-2-yl)phenyl)acetamide] | 42.2% | 48.8% |  |
| CCC(F)(F)c1ccc(CC(=O)Nc2ccc(-c3ncccc3-c3ccc(F)cc3)cc2)cc1 [Example 14, 2-(4-(1,1-Difluoropropyl)phenyl)-N-(4-(3-(4-fluorophenyl)pyridin-2-yl)phenyl)acetamide] | 74.4% | 83.8% | 100 to 500 nM |
| CCC(F)(F)c1ccc(CC(=O)Nc2ccc(-c3nccnc3O[C@@H](C)c3ccccc3Cl)cc2)cc1 [Example 85, (S)-N-(4-(3-(1-(2-Chlorophenyl)ethoxy)pyrazin-2-yl)phenyl)-2-(4-(1,1-difluoropropyl)phenyl)acetamide] | 74.8% | 79.6% | 100 to 500 nM |
| CCC(F)(F)c1ccc(CC(=O)Nc2ccc(-c3nccnc3Oc3ccccc3Cl)cc2)cc1 [Example 87, N-(4-(3-(2-Chlorophenoxy)pyrazin-yl)phenyl)-2-(4-(1,1-difluoropropyl)phenyl)acetamide] | 16.3% | 32.4% |  |
| CCC(F)(F)c1ccc(CC(=O)Nc2ccc(-c3nccnc3N[C@@H](C)c3cccc(Cl)c3)cc2)cc1 [Example 64, (S)-N-(4-(3-((1-(3-Chlorophenyl)ethyl)amino)pyrazin-2-yl)phenyl)-2-(4-(1,1-difluoropropyl)phenyl)acetamide] | 76.2% | 84.9% | 100 to 500 nM |
| Cc1ccc([C@H](C)Nc2nccnc2-c2ccc(NC(=O)Cc3ccc(C(F)(F)C(C)O)cc3)cc2)c(C)c1 (stereo partly drawn) [Example 95, 2-(4-(1,1-Difluoro-2-hydroxypropyl)phenyl)-N-(4-(3-(((S)-1-(2,4-dimethylphenyl)ethyl)amino)pyrazin-2-yl)phenyl)acetamide] | 93.7% | 95.4% | < 50 nM |
| CCC(F)(F)c1ccc(CC(=O)Nc2ccc(-c3nccnc3N3C[C@@H](C)O[C@@H](C)C3)cc2)cc1 [Example 36, 2-(4-(1,1-Difluoropropyl)phenyl)-N-(4-(3-((25,6R)-2,6-dimethylmorpholino)pyrazin-2-yl)phenyl)acetamide] | 2.6% | 8.3% |  |
| CCC(F)(F)c1ccc(CC(=O)Nc2ccc(-c3nccnc3N(C)[C@@H](C)c3ccccc3)cc2)cc1 [Example 62, (S)-2-(4-(1,1-Difluoropropyl)phenyl)-N-(4-(3-(methyl(1-phenylethyl)amino)pyrazin-2-yl)phenyl)acetamide] | 65.6% | 84.8% |  |
| CCC(F)(F)c1ccc(CC(=O)Nc2ccc(-c3nccnc3OCc3c(C)noc3C)cc2)cc1 [Example 89, 2-(4-(1,1-Difluoropropyl)phenyl)-N-(4-(3-((3,5-dimethylisoxazol-4-yl)methoxy)pyrazin-2-yl)phenyl)acetamide] | 58.8% | 74.6% |  |
| CC(O)C(F)(F)c1ccc(CC(=O)Nc2ccc(-c3nccnc3N3CCN(C(=O)C4CC4)CC3)cc2)cc1 (stereo not drawn) [Example 54, N-(4-(3-(4-(Cyclopropanecarbonyl)piperazin-1-yl)pyrazin-2-yl)phenyl)-2-(4-(1,1-difluoro-2-hydroxypropyl)phenyl)acetamide] | 23.1% | 42.4% |  |
